Experimental findings from patent publication US6562850B1, “Methods of synthesizing sultams and anti-viral compositions” (The University of Tennessee Research Corporation, priority 1998, dated 2003) are described below.

In one data set the test system is HIV-1. Put plainly: anti-HIV-1 activity, National Cancer Institute (Weislow) protocol. The format is cell-based. Conditions: for pIC50: IC50 beside EC50 and TI50 (not further defined in the patent); for Act.: activity class as per the NCI protocol.
The mark [1] stands for this setting: Human immunodeficiency virus 1, NCI Weislow protocol.

pEC50, pIC50: −log10 of the molar value.

What is called pIC50 is the negative decadic logarithm of the IC50, by convention in mol/L. A low value points to a high IC50. By pEC50 is commonly meant the EC50 on a negative log10 scale, so that one unit is a factor of ten. Read a low pEC50 as a high EC50. One may read the melting point as the temperature of the solid-liquid transition.

In the data set with HIV-1 (NCI Weislow protocol), “(R,S)-2,5-Dimethyl-3-phenyl-2,3-dihydrobenzo[d]isothiazole 1,1-dioxide [Compound 47]” showed a pIC50 of 3.81. Moreover, the TI50 in the data set with HIV-1 (NCI Weislow protocol, therapeutic index column) worked out at 5.03. Further, in the data set with HIV-1 (anti-HIV-1 activity, NCI Weislow protocol), the pEC50 was 4.51.
As for `CN1[C@@H](c2ccc(O)cc2)c2ccccc2S1(=O)=O` [Compound 21, (+)-4-[(3S)-2-Methyl-1,1-dioxo-2,3-dihydrobenzo[d]isothiazol-3-yl]phenol], the melting point was in the range of 178 to 180 °C. Besides, the pIC50 in the data set on HIV-1 (setting [1]) was under 3.70. The Act. entry in the data set on HIV-1 is listed as “I”.
Taken in the same sequence, the figures for `CN1[C@H](c2ccc(O)cc2)c2ccccc2S1(=O)=O` [Compound 22, (−)-4-[(3R)-2-Methyl-1,1-dioxo-2,3-dihydrobenzo-[d]-isothiazol-3-yl]phenol] were 178 to 179 °C, under 3.70 and “I”.
As for “(R,S)-4-(2-Methyl-1,1-dioxo-2,3-dihydrobenzo[d]isothiazol-3-yl)phenol [Compound 20]”, in the data set on HIV-1 (NCI Weislow protocol), the pIC50 was under 3.70. Also, the Act. entry with HIV-1 is “I”.
